Data reported in US20060014723A1, “Anti-parasitic uses of borinic acid complexes” (priority 2004, published 2006).

Test system: P. Berghei
Test: In vivo efficacy mouse malaria model
Settings: 1×/day
Method: Test compounds will be compared to chloroquine, artemisinin, mefloquine as follows: NMRI mice, SPF, females, […]
From a donor mouse with approximately 30% parasitemia, heparinized blood is taken and diluted in physiological saline to 10^8 parasitized erythrocytes per mL. An aliquot of 0.2 mL (=2×10^7 parasitized erythrocytes) of this suspension is injected intravenously (i.v.) into experimental groups of 4 mice.
Two-to-four hours post-infection, the experimental groups are treated with a single dose by the subcutaneous or the oral route. The compounds are prepared at an appropriate concentration, as a solution or suspension containing 3% ethanol and 7% Tween 80 or in SSV (standard suspending vehicle): […]
Twenty-four hours after the last treatment ([…]) blood smears from all animals are prepared and stained with Giemsa. Parasitemia is determined microscopically by counting 400 red blood cells (“rbcs”), for low parasitemias (<1%) up to 4,000 rbc's have to be counted. The difference between the mean value of the control group (taken as 100%) and those of the experimental groups is calculated and expressed as % Reduction where: [formula]
Additional smears will be taken on day 5 and day 6; and parasitemia will be determined and the activity calculated. Survival time (in days) is recorded, and the mean survival time is calculated. Adverse effects are recorded. Four mice/compound and a minimum of 12 mice/study (vehicle and positive controls run concurrently) are used.

`Fc1cccc(B(Oc2cccc3cccnc23)c2ccc(Cl)cc2)c1` [Compound 11, (4-Chlorophenyl)(3-fluorophenyl) borinic acid quinolin-8-yl ester] was tested, and the “% of Activity” value (4 × 30 mg/kg, s.c.) was 42.46%, the “Mean Survival” value (4 × 30 mg/kg, s.c.) was 19.7 days and the “Parasitized RBC over 100 % of Control” value (4 × 30 mg/kg, s.c.) was 57.54%. For the same molecule, the “Parasitized RBC over 100 Mean” value (4 × 30 mg/kg, s.c.) was 14.3, the “% of Activity” value (4 × 100 mg/kg, p.o.) was 58.22% and the “Mean Survival” value (4 × 100 mg/kg, p.o.) was 15.0 days. For the same molecule, the “Parasitized RBC over 100 % of Control” value (4 × 100 mg/kg, p.o.) was 41.78% and the “Parasitized RBC over 100 Mean” value (4 × 100 mg/kg, p.o.) was 10.4.
